# Assay results published in patent publication US12723074B2, “Medicament for treatment and/or prevention of cancer” (TORAY INDUSTRIES, INC., priority 2020, dated 2026).
# T1: CAPRIN-1 on the cell membrane surface of human cancer cells (Homo sapiens, UniProt Q14444)
# T1 construct: endogenous in cells; host or cells: BT-474, HT-29, QG56, H1650, NCI-N87, HEC-1-A, 22Rv1, Panc10.5, Hep3B, SKOV3, Caki-2, U-87MG, T24, OE33, OCI-AIM5, Ramos, TGBC14TKB, HT-1080, G-361
# T1 sequence (Q14444 1-709): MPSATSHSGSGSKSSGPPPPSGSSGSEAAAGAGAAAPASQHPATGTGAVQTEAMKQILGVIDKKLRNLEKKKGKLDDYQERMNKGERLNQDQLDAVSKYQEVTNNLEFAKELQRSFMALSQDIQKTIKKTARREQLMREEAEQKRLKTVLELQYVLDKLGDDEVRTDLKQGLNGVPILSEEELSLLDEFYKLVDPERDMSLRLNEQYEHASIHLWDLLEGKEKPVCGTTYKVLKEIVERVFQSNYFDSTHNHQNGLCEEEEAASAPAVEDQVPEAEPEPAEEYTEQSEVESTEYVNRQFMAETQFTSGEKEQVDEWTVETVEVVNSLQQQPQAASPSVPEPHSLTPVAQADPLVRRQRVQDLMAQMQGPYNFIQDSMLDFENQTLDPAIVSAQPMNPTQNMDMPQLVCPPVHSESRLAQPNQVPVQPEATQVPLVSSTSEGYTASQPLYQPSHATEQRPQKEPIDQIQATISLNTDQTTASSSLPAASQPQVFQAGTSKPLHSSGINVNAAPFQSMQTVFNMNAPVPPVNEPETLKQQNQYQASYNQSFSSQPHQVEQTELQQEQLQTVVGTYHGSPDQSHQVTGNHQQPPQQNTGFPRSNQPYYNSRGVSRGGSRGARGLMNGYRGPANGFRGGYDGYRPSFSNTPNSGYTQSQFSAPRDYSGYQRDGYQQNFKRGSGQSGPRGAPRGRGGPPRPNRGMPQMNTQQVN
# T2: CAPRIN-1 on the cell membrane surface of mouse kidney cancer cells (Renca) and mouse breast cancer cells (4T1) (Mus musculus, UniProt Q60865)
# T2 construct: endogenous in cells; host or cells: Renca, 4T1
# T2 sequence (Q60865 1-707): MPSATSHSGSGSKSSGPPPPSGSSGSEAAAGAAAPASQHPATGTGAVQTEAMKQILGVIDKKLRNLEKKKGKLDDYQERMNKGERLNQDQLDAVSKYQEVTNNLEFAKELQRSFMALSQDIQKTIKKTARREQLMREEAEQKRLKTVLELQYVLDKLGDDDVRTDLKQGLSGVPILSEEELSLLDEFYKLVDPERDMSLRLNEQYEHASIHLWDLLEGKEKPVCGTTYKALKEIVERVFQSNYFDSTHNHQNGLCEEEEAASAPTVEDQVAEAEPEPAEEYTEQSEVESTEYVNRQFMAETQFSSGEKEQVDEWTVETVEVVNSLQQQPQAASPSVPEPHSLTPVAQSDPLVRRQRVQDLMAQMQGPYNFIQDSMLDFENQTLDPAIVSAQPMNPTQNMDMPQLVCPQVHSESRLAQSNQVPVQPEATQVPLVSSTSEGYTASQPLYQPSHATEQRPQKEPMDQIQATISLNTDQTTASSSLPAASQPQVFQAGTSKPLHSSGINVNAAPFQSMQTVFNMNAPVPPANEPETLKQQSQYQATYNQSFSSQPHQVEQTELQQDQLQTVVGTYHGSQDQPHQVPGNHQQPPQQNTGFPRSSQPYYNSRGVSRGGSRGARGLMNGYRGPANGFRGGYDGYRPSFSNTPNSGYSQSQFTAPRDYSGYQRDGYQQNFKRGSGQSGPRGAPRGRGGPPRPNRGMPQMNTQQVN
# Columns and labels:
# [1] = system: Human breast cancer cells BT474; assay: Antitumor effect in human breast cancer BT474-bearing NOG mice (combination with axitinib); type: in vivo; conditions: day 63 after cancer bearing
# Procedure: Likewise, in vivo antitumor effect in cancer-bearing mouse was evaluated by administering a combination of the anti-CAPRIN-1 antibody (anti-CAPRIN-1 humanized antibody #1) produced in Example 1, and an anti-vascular endothelial growth factor receptor (VEGFR) inhibitor.
# Specifically, the antitumor effect of the combination of the anti-CAPRIN-1 antibody and axitinib according to the present invention was studied using NOG mice in which human-derived cancer cells expressing CAPRIN-1 protein were subcutaneously transplanted. Human breast cancer cells BT474 were subcutaneously transplanted at 2×10^7 cells per mouse as a mixture with Matrigel and allowed to grow until a tumor became approximately 100 mm^3 to prepare cancer-bearing mice. Each anti-CAPRIN-1 antibody produced in Example 1 was administered at 10 mg/kg once a week to the tail veins of five cancer-bearing mice described above. To these mice, administration of axitinib was started simultaneously with the initial administration of the anti-CAPRIN-1 antibody, and the administration was performed at 5 or 25 mg/kg twice a day for 9 days and then once a day for 15 days.
# For a comparative control group, the same dose of the same anti-CAPRIN-1 antibody as above was administered once a week to cancer-bearing mice. For another comparative control group, axitinib was administered at the same administration intervals and dose as above to other individuals of cancer-bearing mice. Cancer-bearing mice in a non-treatment group were used as negative controls. After the start of administration, the sizes of cancers in the cancer-bearing mice were measured over time using calipers. Tumor volumes were calculated according to a standard method using a calculation expression: (Length of the major axis of the tumor)×(Length of the minor axis of the tumor)^2×0.5.
# [2] = system: gastroesophageal junction cancer or gastric adenocarcinoma; conditions: RAINBOW trial patients; cited from earlier work
# [3] = system: Human breast cancer cells BT474; assay: Antitumor effect in human breast cancer BT474-bearing NOD-SCID mice (combination with bevacizumab); type: in vivo; conditions: day 41 after cancer bearing, antibody 10 mg/kg once a week, bevacizumab 1.25 mg/kg once a week
# Procedure: Human breast cancer cells BT474 were subcutaneously transplanted at 2×10^7 cells per mouse as a mixture with Matrigel (Sigma) and allowed to grow until a tumor became approximately 100 mm^3 to prepare cancer-bearing mice.
# For a comparative control group, the same dose of the same anti-CAPRIN-1 antibody as above was administered once a week to cancer-bearing mice. […] Cancer-bearing mice in a non-treatment group were used as negative controls. After the start of administration, the sizes of cancers in the cancer-bearing mice were measured over time using calipers. Tumor volumes were calculated according to a standard method using a calculation expression: (Length of the major axis of the tumor)×(Length of the minor axis of the tumor)^2×0.5.
# [4] = target: T1, CAPRIN-1 on the cell membrane surface of human cancer cells; assay: Flow cytometry reactivity with cell membrane surface of human cancer cells expressing CAPRIN-1; type: binding; conditions: human cancer cells BT-474, HT-29, QG56, H1650, NCI-N87, HEC-1-A, 22Rv1, Panc10.5, Hep3B, SKOV3, Caki-2, U-87MG, T24, OE33, OCI-AIM5, Ramos, TGBC14TKB, HT-1080, G-361
# Excerpt: Reactivity of each monoclonal antibody with human cancer cells confirmed to express CAPRIN-1 protein on the cell membrane surface was further confirmed by flow cytometry.
# (§1) The reactivity of the anti-CAPRIN-1 antibody with cancer cells without permeation treatment of cell membrane was examined by flow cytometry to confirm that a portion of CAPRIN-1 was expressed on the cell membrane surface of cancer cells as shown in Examples given below.
# [5] = target: T2, CAPRIN-1 on the cell membrane surface of mouse kidney cancer cells (Renca) and mouse breast cancer cells (4T1); assay: Flow cytometry reactivity with cell membrane surface of mouse cancer cells expressing CAPRIN-1; type: binding; conditions: mouse cancer cells Renca and 4T1
# Excerpt: as §1
molecule,measurement,setting,value
CNC(=O)c1ccccc1Sc1ccc2c(/C=C/c3ccccn3)n[nH]c2c1 [axitinib],tumor volume when the tumor volume of the negative control was defined as 100%,[1]; axitinib 5 mg/kg (alone or with antibody 10 mg/kg once a week),39%
same,tumor volume when the tumor volume of the negative control was defined as 100%,[1]; axitinib 25 mg/kg (alone or with antibody 10 mg/kg once a week),27%
CC(=O)O[C@H]1C(=O)[C@@]2(C)[C@H]([C@H](OC(=O)c3ccccc3)[C@]3(O)C[C@H](OC(=O)[C@H](O)[C@@H](NC(=O)c4ccccc4)c4ccccc4)C(C)=C1C3(C)C)[C@]1(OC(C)=O)CO[C@@H]1C[C@@H]2O [paclitaxel],median overall survival,[2],7.4 months
same,median progression-free survival,[2],2.9 months
"anti-CAPRIN-1 humanized antibody #1: humanized IgG1 antibody with CDRs of the mouse anti-CAPRIN-1 monoclonal antibody (heavy chain SEQ ID NO: 114, light chain SEQ ID NO: 115) (antibody, listed as Mus musculus) heavy: GPELVKPGASVKMSCKASGYTFTSYVMHWVKQKPGQGLEWIGYINPYNDGTKYNEKFKGKATLTSDKSSSTAYMELSSLTSEDSAVYYCARRYYYGSSGGYFDVWAQDHVRT light: DVQITQSPSYLAASPGETITINCRASKSISKYLAWYQEKPGKTNKLLIYSGSTLQSGIPSRFSGSGSGTDFTLTISSLEPEDFAMYYCQQHNEYPYTFGGGTKLEIKR",tumor volume when the tumor volume of the negative control was defined as 100%,[3],52%
same,tumor volume when the tumor volume of the negative control was defined as 100%,[1]; antibody alone 10 mg/kg once a week,40%
same,reactivity with the cell membrane surface of cancer cells (fluorescence intensity vs IgG control),[4],reacted strongly
same,reactivity with the cell membrane surface of cancer cells (fluorescence intensity vs IgG control),[5],reacted strongly
